The values that follow come from publication PMC5218480 (PLoS ONE, 2017).

This assay relates to MV-4-11 cells. In words: Gene expression microarray analysis (Affymetrix PrimeView) and GSEA. Also noted: RFU PODN (11730768_x_at) / Fold change /veh PODN (11730768_x_at) / RFU LINC00158 (11744669_a_at) / Fold change /veh LINC00158 (11744669_a_at) / RFU DUSP10 (11751237_a_at) / Fold change /veh DUSP10 (11751237_a_at) / RFU ID3 (11757404_x_at) / Fold change /veh ID3 (11757404_x_at) / RFU PLEKHG5 (11737974_s_at) / Fold change /veh PLEKHG5 (11737974_s_at) / RFU LRRC4B (11730491_at) / Fold change /veh LRRC4B (11730491_at) / RFU GIMAP4 (11747438_a_at) / Fold change /veh GIMAP4 (11747438_a_at) / RFU KRT8 (11758183_x_at) / Fold change /veh KRT8 (11758183_x_at) / RFU CNN1 (11734310_a_at) / Fold change /veh CNN1 (11734310_a_at) / RFU VPS37D (11726825_at) / Fold change /veh VPS37D (11726825_at) / RFU C10orf10 (11716522_x_at) / Fold change /veh C10orf10 (11716522_x_at) / RFU KIR2DL2 /// KIR2DL4 /// KIR2DL5A /// KIR2DL5B /// KIR2DS1 /// KIR2DS2 /// KIR2DS3 /// KIR2DS4 /// KIR3DL3 /// KIR3DL3 /// KIR3DS1 (11738374_at) / Fold change /veh KIR2DL2 /// KIR2DL4 /// KIR2DL5A /// KIR2DL5B /// KIR2DS1 /// KIR2DS2 /// KIR2DS3 /// KIR2DS4 /// KIR3DL3 /// KIR3DL3 /// KIR3DS1 (11738374_at) / RFU C1QL1 (11718748_at) / Fold change /veh C1QL1 (11718748_at) / RFU TMPRSS4 (11747572_a_at) / Fold change /veh TMPRSS4 (11747572_a_at) / RFU HAMP (11756126_x_at) / Fold change /veh HAMP (11756126_x_at) / RFU RNFT2 (11725882_a_at) / Fold change /veh RNFT2 (11725882_a_at) / RFU NR4A2 (11747474_a_at) / Fold change /veh NR4A2 (11747474_a_at) / RFU ABCC12 (11746883_a_at) / Fold change /veh ABCC12 (11746883_a_at) / RFU TMEM136 (11760407_x_at) / Fold change /veh TMEM136 (11760407_x_at) / RFU CLDN22 /// WWC2 (11732394_at) / Fold change /veh CLDN22 /// WWC2 (11732394_at) / RFU HLA-DPB1 (11760878_x_at) / Fold change /veh HLA-DPB1 (11760878_x_at) / RFU SPINT1 (11716480_a_at) / Fold change /veh SPINT1 (11716480_a_at) / RFU GAP43 (11754022_s_at) / Fold change /veh GAP43 (11754022_s_at) / RFU A4GNT (11735810_at) / Fold change /veh A4GNT (11735810_at) / RFU PRB3 (11715151_x_at) / Fold change /veh PRB3 (11715151_x_at) / RFU TUBB4B (11761932_at) / Fold change /veh TUBB4B (11761932_at) / RFU CAPN14 (11732068_a_at) / Fold change /veh CAPN14 (11732068_a_at) / RFU TMCC2 (11721928_a_at) / Fold change /veh TMCC2 (11721928_a_at) / RFU IRGQ (11745062_a_at) / Fold change /veh IRGQ (11745062_a_at) / RFU FAM174B (11720279_a_at) / Fold change /veh FAM174B (11720279_a_at) / RFU TMPRSS4 (11748680_a_at) / Fold change /veh TMPRSS4 (11748680_a_at) / RFU FAM212B (11763350_a_at) / Fold change /veh FAM212B (11763350_a_at) / RFU PLEKHG5 (11743358_a_at) / Fold change /veh PLEKHG5 (11743358_a_at) / RFU ZSCAN30 (11745921_a_at) / Fold change /veh ZSCAN30 (11745921_a_at) / RFU CMKLR1 (11741424_a_at) / Fold change /veh CMKLR1 (11741424_a_at) / RFU LOC101060620 /// MAPK8IP1 (11723275_at) / Fold change /veh LOC101060620 /// MAPK8IP1 (11723275_at) / RFU SPTSSB (11747773_x_at) / Fold change /veh SPTSSB (11747773_x_at) / RFU PRSS12 (11739890_at) / Fold change /veh PRSS12 (11739890_at) / RFU BIN1 (11741810_x_at) / Fold change /veh BIN1 (11741810_x_at) / RFU WNT11 (11732464_a_at) / Fold change /veh WNT11 (11732464_a_at) / RFU C10orf10 (11716521_a_at) / Fold change /veh C10orf10 (11716521_a_at) / RFU C5orf56 (11738089_at) / Fold change /veh C5orf56 (11738089_at) / RFU CYB561 (11721691_x_at) / Fold change /veh CYB561 (11721691_x_at) / RFU ANKRD19P (11752326_a_at) / Fold change /veh ANKRD19P (11752326_a_at) / RFU OR2T12 /// OR2T33 /// OR2T8 (11738714_s_at) / Fold change /veh OR2T12 /// OR2T33 /// OR2T8 (11738714_s_at) / RFU VCAN (11748164_a_at) / Fold change /veh VCAN (11748164_a_at) / RFU JSRP1 (11732532_at) / Fold change /veh JSRP1 (11732532_at) / RFU KRTAP10-11 (11738290_x_at) / Fold change /veh KRTAP10-11 (11738290_x_at) / RFU MYO3A (11730013_a_at) / Fold change /veh MYO3A (11730013_a_at) / RFU EBF3 (11725865_a_at) / Fold change /veh EBF3 (11725865_a_at) / RFU CAMK2N1 (11719241_x_at) / Fold change /veh CAMK2N1 (11719241_x_at) / RFU C5orf56 (11738088_a_at) / Fold change /veh C5orf56 (11738088_a_at) / RFU OLFML3 (11715873_a_at) / Fold change /veh OLFML3 (11715873_a_at) / RFU LOC100653217 /// NTM (11731650_a_at) / Fold change /veh LOC100653217 /// NTM (11731650_a_at) / RFU MAPK11 (11762145_a_at) / Fold change /veh MAPK11 (11762145_a_at) / RFU FIZ1 (11724087_x_at) / Fold change /veh FIZ1 (11724087_x_at) / RFU OASL (11726364_x_at) / Fold change /veh OASL (11726364_x_at) / RFU SOX15 (11748057_x_at) / Fold change /veh SOX15 (11748057_x_at) / RFU CD79A (11719716_a_at) / Fold change /veh CD79A (11719716_a_at) / RFU HIST1H1D (11736915_at) / Fold change /veh HIST1H1D (11736915_at) / RFU CASKIN2 (11723855_a_at) / Fold change /veh CASKIN2 (11723855_a_at) / RFU LOC730098 (11760151_x_at) / Fold change /veh LOC730098 (11760151_x_at) / RFU OR4N2 (11742367_at) / Fold change /veh OR4N2 (11742367_at) / RFU PRRT2 (11749266_a_at) / Fold change /veh PRRT2 (11749266_a_at) / RFU SNX32 (11753110_a_at) / Fold change /veh SNX32 (11753110_a_at) / RFU CDHR5 (11726645_a_at) / Fold change /veh CDHR5 (11726645_a_at) / RFU RCAN1 (11760418_a_at) / Fold change /veh RCAN1 (11760418_a_at) / RFU FAM167A (11723789_a_at) / Fold change /veh FAM167A (11723789_a_at) / RFU FAM26E (11764081_at) / Fold change /veh FAM26E (11764081_at) / RFU ISYNA1 (11749810_s_at) / Fold change /veh ISYNA1 (11749810_s_at) / RFU ACY1 (11761880_at) / Fold change /veh ACY1 (11761880_at) / RFU 11764098_at / Fold change /veh 11764098_at / RFU SAMD14 (11745864_x_at) / Fold change /veh SAMD14 (11745864_x_at) / RFU NPB (11741838_a_at) / Fold change /veh NPB (11741838_a_at) / RFU TMPRSS6 (11731388_a_at) / Fold change /veh TMPRSS6 (11731388_a_at) / RFU KRTAP10-2 (11738614_at) / Fold change /veh KRTAP10-2 (11738614_at) / RFU ARHGAP8 /// PRR5-ARHGAP8 (11727945_x_at) / Fold change /veh ARHGAP8 /// PRR5-ARHGAP8 (11727945_x_at) / RFU KRTAP5-7 /// NADSYN1 (11734609_at) / Fold change /veh KRTAP5-7 /// NADSYN1 (11734609_at) / RFU RASL12 (11751679_a_at) / Fold change /veh RASL12 (11751679_a_at) / RFU CDKN2B (11736163_a_at) / Fold change /veh CDKN2B (11736163_a_at) / RFU PRF1 (11729649_at) / Fold change /veh PRF1 (11729649_at) / RFU, ZNF638 /// ZNF638-IT1 / Fold change vs veh, ZNF638 /// ZNF638-IT1 / RFU, PANK3 / Fold change vs veh, PANK3 / RFU, SH3YL1 / Fold change vs veh, SH3YL1 / RFU, ZEB2 / Fold change vs veh, ZEB2 / RFU, NRIP1 / Fold change vs veh, NRIP1 / RFU, PTTG1IP / Fold change vs veh, PTTG1IP / RFU, CAPN2 / Fold change vs veh, CAPN2 / RFU, MED14 / Fold change vs veh, MED14 / RFU, SNORA58 / Fold change vs veh, SNORA58 / RFU, C1orf63 / Fold change vs veh, C1orf63 / RFU, LRRFIP1 / Fold change vs veh, LRRFIP1 / RFU, NDUFAF7 / Fold change vs veh, NDUFAF7 / RFU, SLC12A2 / Fold change vs veh, SLC12A2 / RFU, IBTK / Fold change vs veh, IBTK / RFU, ESF1 / Fold change vs veh, ESF1 / Fold change vs veh, TMEM50B / RFU, TAOK1 / Fold change vs veh, TAOK1 / RFU, ACBD3 / Fold change vs veh, ACBD3 / RFU, TMA16 / Fold change vs veh, TMA16 / RFU, RWDD3 / Fold change vs veh, RWDD3 / RFU, BCAT1 / Fold change vs veh, BCAT1 / RFU, EDEM3 / Fold change vs veh, EDEM3 / RFU, TMEM33 / Fold change vs veh, TMEM33 / RFU, WDR75 / Fold change vs veh, WDR75 / RFU, AHCTF1 / Fold change vs veh, AHCTF1 / RFU, TFRC / Fold change vs veh, TFRC / RFU, ZDHHC17 / Fold change vs veh, ZDHHC17 / RFU, NOM1 / Fold change vs veh, NOM1 / RFU, ARL8B / Fold change vs veh, ARL8B / RFU, ZBTB11 / Fold change vs veh, ZBTB11 / RFU, TAMM41 / Fold change vs veh, TAMM41 / RFU, KIAA1704 /// LOC100996395 / Fold change vs veh, KIAA1704 /// LOC100996395 / RFU, ING1 / Fold change vs veh, ING1 / RFU, TRMT61B / Fold change vs veh, TRMT61B / RFU, FUBP3 / Fold change vs veh, FUBP3 / RFU, TP53 / Fold change vs veh, TP53 / RFU, TNKS2 / Fold change vs veh, TNKS2 / RFU, ZFP14 / Fold change vs veh, ZFP14 / RFU, ACTR2 / Fold change vs veh, ACTR2 / RFU, PPP3R1 / Fold change vs veh, PPP3R1 / RFU, PIK3R1 / Fold change vs veh, PIK3R1 / RFU, HNRNPA1 / Fold change vs veh, HNRNPA1 / RFU, RNF170 / Fold change vs veh, RNF170 / RFU, ZNF28 / Fold change vs veh, ZNF28 / RFU, RNGTT / Fold change vs veh, RNGTT / RFU, OGT / Fold change vs veh, OGT / RFU, BRD1 / Fold change vs veh, BRD1 / RFU, MARS / Fold change vs veh, MARS / RFU, ZNF655 / Fold change vs veh, ZNF655 / RFU, FAHD1 / Fold change vs veh, FAHD1 / RFU, BDP1 / Fold change vs veh, BDP1 / RFU, LRRCC1 / Fold change vs veh, LRRCC1 / RFU, ARID1A / Fold change vs veh, ARID1A / RFU, ZNF146 / Fold change vs veh, ZNF146 / RFU, ZNF330 / Fold change vs veh, ZNF330 / RFU, GPN3 / Fold change vs veh, GPN3 / RFU, C9orf123 / Fold change vs veh, C9orf123 / RFU, N4BP2L2 / Fold change vs veh, N4BP2L2 / RFU, ARFIP1 / Fold change vs veh, ARFIP1 / RFU, FAM179B / Fold change vs veh, FAM179B / RFU, BCL10 / Fold change vs veh, BCL10 / RFU, UHRF1BP1L / Fold change vs veh, UHRF1BP1L / RFU, BET1 / Fold change vs veh, BET1 / RFU, CNOT2 / Fold change vs veh, CNOT2 / RFU, ZNF268 / Fold change vs veh, ZNF268 / Fold change vs veh, ZNF507 / RFU, DGCR2 / Fold change vs veh, DGCR2 / RFU, WDSUB1 / Fold change vs veh, WDSUB1 / Fold change vs veh, HSP90B1 /// MIR3652 / RFU, ADSS / Fold change vs veh, ADSS / RFU, GK / Fold change vs veh, GK / RFU, ZNF148 / Fold change vs veh, ZNF148 / RFU, TAF9 / Fold change vs veh, TAF9 / RFU, SLC1A5 / Fold change vs veh, SLC1A5 / RFU, SLMO2 / Fold change vs veh, SLMO2 / RFU, ABCC4 / Fold change vs veh, ABCC4 / RFU, LOC101060439 /// RAP1B / Fold change vs veh, LOC101060439 /// RAP1B / RFU, RFX7 / Fold change vs veh, RFX7 / RFU, GTPBP10 / Fold change vs veh, GTPBP10 / RFU, CNEP1R1 / Fold change vs veh, CNEP1R1 / RFU, BIVM-ERCC5 /// ERCC5 / Fold change vs veh, BIVM-ERCC5 /// ERCC5 / RFU, ILF3 / Fold change vs veh, ILF3 / RFU 11762660_at / Fold change /veh 11762660_at / RFU VCAN (11757783_s_at) / Fold change /veh VCAN (11757783_s_at) / RFU DDX43 (11728927_at) / Fold change /veh DDX43 (11728927_at) / RFU KRT8 (11758188_x_at) / Fold change /veh KRT8 (11758188_x_at) / RFU NKD1 (11759106_at) / Fold change /veh NKD1 (11759106_at) / RFU SRD5A1 (11742802_a_at) / Fold change /veh SRD5A1 (11742802_a_at) / RFU TPSAB1 /// TPSB2 (11721975_s_at) / Fold change /veh TPSAB1 /// TPSB2 (11721975_s_at) / RFU GSTM3 (11746129_a_at) / Fold change /veh GSTM3 (11746129_a_at) / RFU IL23R (11737362_x_at) / Fold change /veh IL23R (11737362_x_at) / RFU TMEM51 (11727254_a_at) / Fold change /veh TMEM51 (11727254_a_at) / RFU PIWIL2 (11732686_x_at) / Fold change /veh PIWIL2 (11732686_x_at) / RFU ORM1 (11744905_x_at) / Fold change /veh ORM1 (11744905_x_at) / RFU CCDC152 (11743942_at) / Fold change /veh CCDC152 (11743942_at) / RFU ECM1 (11717891_a_at) / Fold change /veh ECM1 (11717891_a_at) / RFU IL23R (11748794_a_at) / Fold change /veh IL23R (11748794_a_at) / RFU TNFAIP8L3 (11732012_x_at) / Fold change /veh TNFAIP8L3 (11732012_x_at) / RFU MBOAT4 (11741988_at) / Fold change /veh MBOAT4 (11741988_at) / RFU 11764193_at / Fold change /veh 11764193_at / RFU TMEM53 (11763286_at) / Fold change /veh TMEM53 (11763286_at) / RFU MAGEB2 (11727129_at) / Fold change /veh MAGEB2 (11727129_at) / RFU TMEM200A (11744735_a_at) / Fold change /veh TMEM200A (11744735_a_at) / RFU CCDC152 (11751479_a_at) / Fold change /veh CCDC152 (11751479_a_at) / RFU FAM211A (11726209_a_at) / Fold change /veh FAM211A (11726209_a_at) / RFU RGS16 (11746705_a_at) / Fold change /veh RGS16 (11746705_a_at) / RFU VCAN (11755009_s_at) / Fold change /veh VCAN (11755009_s_at) / RFU RHOB (11743442_s_at) / Fold change /veh RHOB (11743442_s_at) / RFU RGS16 (11720943_a_at) / Fold change /veh RGS16 (11720943_a_at) / RFU RGS16 (11720944_at) / Fold change /veh RGS16 (11720944_at) / RFU, VPS4B / Fold change vs veh, VPS4B / RFU, CREB1 / Fold change vs veh, CREB1 / RFU, DNAJC13 / Fold change vs veh, DNAJC13 / RFU, GNAQ / Fold change vs veh, GNAQ / RFU, CDK5R1 / Fold change vs veh, CDK5R1 / RFU, ZRANB3 / Fold change vs veh, ZRANB3 / RFU, CUL4A / Fold change vs veh, CUL4A / RFU, CCNY / Fold change vs veh, CCNY / RFU, UFL1 / Fold change vs veh, UFL1 / RFU, COG3 / Fold change vs veh, COG3 / RFU, DIAPH2 / Fold change vs veh, DIAPH2 / RFU, SKA2 / Fold change vs veh, SKA2 / RFU, AFF3 / Fold change vs veh, AFF3 / RFU, LMF1 / Fold change vs veh, LMF1 / RFU, IPO11 / Fold change vs veh, IPO11 / RFU, DFFB / Fold change vs veh, DFFB / RFU, FOXP1 / Fold change vs veh, FOXP1 / RFU, CARD8 / Fold change vs veh, CARD8 / RFU, STRN3 / Fold change vs veh, STRN3 / RFU, ADK / Fold change vs veh, ADK / RFU, RASSF2 / Fold change vs veh, RASSF2 / RFU, WIPF1 / Fold change vs veh, WIPF1 / RFU, LARP1B / Fold change vs veh, LARP1B / RFU, RASA1 / Fold change vs veh, RASA1 / RFU, RB1 / Fold change vs veh, RB1 / RFU, PPFIA1 / Fold change vs veh, PPFIA1 / RFU, MAT2A / Fold change vs veh, MAT2A / RFU, CCT5 / Fold change vs veh, CCT5 / RFU, WDR92 / Fold change vs veh, WDR92 / RFU, CUX1 / Fold change vs veh, CUX1 / RFU, TTC7A / Fold change vs veh, TTC7A / RFU, TMEM135 / Fold change vs veh, TMEM135 / RFU, DEPTOR / Fold change vs veh, DEPTOR / RFU, CPM / Fold change vs veh, CPM / RFU, DNAJB6 / Fold change vs veh, DNAJB6 / RFU, CACNA2D3 / Fold change vs veh, CACNA2D3 / RFU, DTX4 / Fold change vs veh, DTX4 / RFU, TFCP2 / Fold change vs veh, TFCP2 / RFU, GMCL1 /// GMCL1P1 / Fold change vs veh, GMCL1 /// GMCL1P1 / RFU, AEBP2 / Fold change vs veh, AEBP2 / RFU, SNHG1 /// SNORD22 /// SNORD25 /// SNORD26 /// SNORD27 /// SNORD28 /// SNORD29 /// SNORD31 / Fold change vs veh, SNHG1 /// SNORD22 /// SNORD25 /// SNORD26 /// SNORD27 /// SNORD28 /// SNORD29 /// SNORD31 / Fold change (Aza/veh), C12orf56 (ProbeSet 11735607_a_at) / Fold change (ACY-1035/veh), C12orf56 (ProbeSet 11735607_a_at) / Fold change (Aza/veh), FGFR1OP (ProbeSet 11751329_s_at) / Fold change (ACY-1035/veh), FGFR1OP (ProbeSet 11751329_s_at) / Fold change (Aza/veh), VPS36 (ProbeSet 11739960_a_at) / Fold change (ACY-1035/veh), VPS36 (ProbeSet 11739960_a_at) / RFU SYPL1 (11715823_x_at) / Fold change /veh SYPL1 (11715823_x_at) / RFU IGFBP7 (11715501_s_at) / Fold change /veh IGFBP7 (11715501_s_at) / RFU REEP3 (11722064_at) / Fold change /veh REEP3 (11722064_at) / RFU IGLL1 (11728026_x_at) / Fold change /veh IGLL1 (11728026_x_at): dose or concentration left out as unconfirmed. The class given is cell-based, human. Conditions: MV-4-11 cells, 48 hours.

Consider `Nc1ccc(-c2cccs2)cc1NC(=O)c1ccc2c(c1)cc(C1CC1)n2CCN1CCOCC1` [ACY-1035], for which the “RFU IL23R (11737362_x_at)” value was determined as 7.94 RFU.
